Data reported in PubChem BioAssay (NCI).
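Cultured in 96-well plates, cells were exposed to test compound for 48 hours across five concentrations. GI50 marks 50% less growth. Definition used: TGI = concentration required for complete inhibition of growth.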

Legend:
Test in all cases: inhibition of tumour cell growth, NCI panel, 48 h
OVCAR-5 ovarian = system: OVCAR-5 ovarian
A498 renal = system: A498 renal
HT29 colon = system: HT29 colon
CAKI-1 renal = system: CAKI-1 renal
LOX IMVI melanoma = system: LOX IMVI melanoma
HL-60(TB) leukemia = system: HL-60(TB) leukemia
SNB-75 CNS = system: SNB-75 CNS
EKVX NSCLC = system: EKVX NSCLC
M14 melanoma = system: M14 melanoma
K-562 leukemia = system: K-562 leukemia

Row | SMILES | TGI (OVCAR-5 ovarian) [µM] | TGI (A498 renal) [µM] | TGI (HT29 colon) [µM] | TGI (CAKI-1 renal) [µM] | TGI (LOX IMVI melanoma) [µM] | TGI (HL-60(TB) leukemia) [µM] | TGI (SNB-75 CNS) [µM] | TGI (EKVX NSCLC) [µM] | TGI (M14 melanoma) [µM] | TGI (K-562 leukemia) [µM] | GI50 (OVCAR-5 ovarian) [µM] | GI50 (A498 renal) [µM] | GI50 (HT29 colon) [µM] | GI50 (CAKI-1 renal) [µM] | GI50 (LOX IMVI melanoma) [µM] | GI50 (HL-60(TB) leukemia) [µM] | GI50 (SNB-75 CNS) [µM] | GI50 (EKVX NSCLC) [µM] | GI50 (M14 melanoma) [µM] | GI50 (K-562 leukemia) [µM]
1 | CC(C)C(=O)NS(=O)(=O)c1ccccc1 | > 100 | > 100 | > 100 | > 100 | > 100 | > 100 | > 100 | > 100 | > 100 | > 100 | – | – | – | – | – | – | – | – | – | –
2 | CSc1ccc2c(c1)C(=O)c1c-2n(CCCBr)c(=O)c2cc([N+](=O)[O-])ccc12 | > 100 | 96.4 | > 100 | 8.94 | 41.5 | 8.46 | > 100 | > 100 | > 100 | 19.3 | > 100 | 8.32 | 28.2 | 1.09 | 2.11 | 0.532 | 7.9 | > 100 | 3.38 | 3.94
3 | NC(=O)c1cc(S(=O)(=O)Nc2nnc(-c3ccccc3)c(-c3ccccc3)n2)c(SCc2ccccc2)cc1Cl | > 100 | > 100 | > 100 | > 100 | > 100 | 49.6 | > 61.5 | > 100 | > 100 | > 100 | > 100 | > 88.6 | – | > 100 | > 82.3 | 23.1 | – | > 100 | > 100 | 54.6
4 | c1ccc2nc3c(nc2c1)sc1ccccc13 | > 100 | 78.2 | > 100 | 30.2 | > 100 | > 100 | 62.8 | 96.2 | > 100 | > 100 | – | – | – | – | – | – | – | – | – | –
5 | O=CN1CCN(CC(O)CN2CCCCC2)CC1 (stereo not drawn) | > 100 | > 100 | > 100 | > 100 | > 100 | > 100 | > 100 | > 100 | > 100 | > 100 | – | – | – | – | – | – | – | – | – | –
6 | Cc1cc(S(=O)(=O)O)c(NC(=O)C(=O)Cc2cc(=O)oc3cc(O)ccc23)cc1Cl | > 100 | > 100 | > 100 | > 100 | > 100 | > 100 | > 100 | > 100 | > 100 | > 100 | – | – | – | – | – | – | – | – | – | –
7 | CCCN1CN(C(C(=O)N[C@@H]2C(=O)N3C2SC(C)(C)C3C(=O)O)c2ccc(O)cc2)CSC1=S (stereo partly drawn) | > 100 | > 100 | > 100 | > 100 | > 100 | > 100 | > 100 | > 100 | > 100 | > 100 | – | – | – | – | – | – | – | – | – | –
